Test results published in paper PMC6193938, “Characterization of a novel AICARFT inhibitor which potently elevates ZMP and has anti-tumor activity in murine models” (Scientific Reports, 2018).
Like-named read-outs stand apart in the source and are kept apart here.

Key:
cell lines of Table 1 = test: Alamar Blue proliferation assay, average over cell lines; format: cell-based; details: Homo sapiens
Description: (§1) Cells lines were acquired from cell banks, see supplemental material, grown using the cell banks recommended culture conditions (Supplemental Table 3). In some experiments noted “low folate” the cells were washed and grown in folate free RPMI-1640 media (Gibco #27016-021) supplemented with 5 ml 1 M Hepes, 5 ml 100 mM Na pyruvate, 2.5 mg/ml glucose and 10% defined FBS (Hyclone #SH30070) per 500 mL media for 5–7 days to deplete intracellular folate levels prior to the start of the experiment. Where noted, cells were maintained in complete “high folate” RPMI-1640 media (ATCC #30-2001) with 10% defined FBS to contrast with the low folate conditions.
Cells were cultured using recommended culture conditions unless noted otherwise (Supplemental Table 3). Cells were plated, dosed with compound and incubated at 37 °C for approximately 2 doubling times as determined for each cell line. Cell Titer Glo (Promega) assay was used to measure proliferation according to manufacturer’s recommendations by measuring luminescence with Flexstation3 (Molecular Devices) with 500 ms integration time. […]
For a limited number of cell lines, compound dosing was performed under high or low folate conditions with cell viability being determined with Alamar Blue rather than an ATP dependent assay. […] The % inhibition for each sample was calculated and fit as described above.

MDA-MB-231 (mammary) = test: MS detection of ZMP in cultured cells; format: cell-based, human; details: for EC50: Homo sapiens, 16 hours
Description: as §1
(§2) ZMP was detected in cultured cells via mass spec analysis. Cells were plated in 96-well plates at 25,000 cells per well in 100 µL with either high or low folate RPMI media and incubated overnight at 37 °C with 5% CO2. Cells were treated with inhibitor compounds for 16 hours, 0.5% DMSO final concentration. Growth media was decanted and cells were lysed for 10 min at room temperature with 50 µL per well of 1x Sure Fire Lysis buffer (Perkin Elmer, SureFire kit component). Aliquots (40 µL) of standard or sample were combined in a deep 96-well plate with 160 µL of internal standard solution containing ^13C5-ZMP (custom synthesis) and ^13C5-AICAr (custom synthesis) at 100 ng/mL in 40 mM ammonium acetate, pH 4. 400 µL of dichloromethane was added to each sample. Samples were sealed, vortexed for 5 minutes, and placed in the refrigerator for at least 30 minutes. The samples were centrifuged at 4 °C for 10 minutes at 16,600 g. 75 µL of the aqueous layer were transferred to a clean 96-well plate and seal prior to analysis.
(§3) The LC-MS method utilizes a Shimadzu Prominence 20 A HPLC system connected to an AB Sciex 5500™ or an AB Sciex 6500™ triple quadrupole mass spectrometer. Extracted samples were separated using a Thermo Hypercarb™ Javelin guard column (2.1 × 20 mm, 5 µm) with an injection volume of 15 µL and a flow rate of 1 mL/minute.
(§4) ZMP, AICAr and dUMP were detected using positive ion TurboIonSpray® multiple reaction monitoring mode and the data were processed with AB Sciex MultiQuant™. Back-calculated ZMP concentrations were fit to a four-parameter logistic equation using ACTIVITYBASE 4.0 to determine EC50 values relative to the maximum observed metabolite levels.

NCI-H460 (lung) = test: MS detection of ZMP in cultured cells; format: cell-based, human; details: for EC50: 16 hours; for peak intracellular ZMP levels: NCI-H460 cells, calculated with 4 pL cell volume
Description: as §1, §2, §3, §4

EPHB1 = biological target: T1, EPHB1 (Homo sapiens, UniProt P54762); test: CEREP protein kinase assay; format: biochemical
T1 construct: purchased CEREP Panlabs (Eurofins)
T1 sequence (P54762 18-984): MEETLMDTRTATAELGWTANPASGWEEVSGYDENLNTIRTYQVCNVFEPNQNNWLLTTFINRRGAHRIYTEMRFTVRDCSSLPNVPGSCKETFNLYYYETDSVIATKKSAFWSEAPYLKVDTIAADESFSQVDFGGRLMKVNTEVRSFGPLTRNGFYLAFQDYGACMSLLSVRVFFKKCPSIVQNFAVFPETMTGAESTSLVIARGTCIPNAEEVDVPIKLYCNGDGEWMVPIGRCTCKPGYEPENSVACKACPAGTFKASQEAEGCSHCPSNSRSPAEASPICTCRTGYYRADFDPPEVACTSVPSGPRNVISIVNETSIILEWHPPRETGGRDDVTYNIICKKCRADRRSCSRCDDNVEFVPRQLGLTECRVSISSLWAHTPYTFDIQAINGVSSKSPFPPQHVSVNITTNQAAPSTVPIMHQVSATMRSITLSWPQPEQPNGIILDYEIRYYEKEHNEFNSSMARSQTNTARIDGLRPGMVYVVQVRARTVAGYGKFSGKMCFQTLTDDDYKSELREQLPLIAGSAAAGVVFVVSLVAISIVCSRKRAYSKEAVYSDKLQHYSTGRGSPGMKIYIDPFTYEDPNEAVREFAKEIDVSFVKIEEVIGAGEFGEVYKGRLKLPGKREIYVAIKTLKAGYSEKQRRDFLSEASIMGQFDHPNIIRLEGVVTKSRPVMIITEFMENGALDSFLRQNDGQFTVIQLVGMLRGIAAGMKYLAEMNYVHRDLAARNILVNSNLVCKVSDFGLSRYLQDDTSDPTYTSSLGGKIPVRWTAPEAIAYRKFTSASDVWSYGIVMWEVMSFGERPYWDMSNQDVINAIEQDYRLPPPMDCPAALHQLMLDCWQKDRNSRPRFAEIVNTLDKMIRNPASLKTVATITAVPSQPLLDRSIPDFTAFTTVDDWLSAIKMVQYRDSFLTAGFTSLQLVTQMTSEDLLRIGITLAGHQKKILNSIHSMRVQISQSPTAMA

Compound: O=c1[nH]ccc2cc(F)c(NS(=O)(=O)c3ccc(N4CC[C@@H](O)C4)s3)cc12 [LSN3213128, N-(6-Fluoro-1-oxo-1,2-dihydroisoquinolin-7-yl)-5-[(3R)-3-hydroxypyrrolidin-1-yl]thiophene-2-sulfonamide]
- GI50 (cell lines of Table 1; low folate, 12 cell lines): 0.0044 ± 0.0045 µM
- GI50 (cell lines of Table 1; regular RPMI, 11 cell lines): 2.4 µM
- EC50 (MDA-MB-231 (mammary); RPMI media, read-out: ZMP EC50 Regular folate): 0.089 µM
- EC50 (MDA-MB-231 (mammary); low folate RPMI media, read-out: ZMP EC50 Low folate): 0.0076 µM
- dUMP levels in tissue culture (MDA-MB-231 (mammary); data not shown): does not alter
- EC50 (NCI-H460 (lung); Homo sapiens, NCI-H460, 16 h, NCI-H460, RPMI media, read-out: ZMP EC50 Regular folate): 0.438 µM
- EC50 (NCI-H460 (lung); Homo sapiens, NCI-H460, 16 h, NCI-H460, low folate RPMI media, read-out: ZMP EC50 Low folate): 0.008 µM
- EC50 (NCI-H460 (lung); NCI-H460, RPMI media, read-out: ZMP EC50 Regular folate): 0.428 ± 0.102 µM
- dUMP levels in tissue culture (NCI-H460 (lung); NCI-H460, data not shown): does not alter
- peak intracellular ZMP levels (NCI-H460 (lung); low folate media): 540 µM
- peak intracellular ZMP levels (NCI-H460 (lung); regular RPMI): about 2,700 μM
- inhibition at 0.2 µM (EPHB1; @ 0.2 uM): -10.2%
- inhibition at 2 µM (EPHB1; @ 2 uM): 11.7%
- inhibition at 20 µM (EPHB1; @ 20 uM): 57.1%
